Data reported in US20230339866A1, “Quinazoline compounds and the use thereof in the treatment of cancer” (TROBIO THERAPEUTICS PTY LTD, priority 2020, published 2023).

Experiments:
[1] = tested on: A549 (NSCLC); assay: Anti-proliferative activity (Cell-Titre luminescence) against A549 non-small cell lung cancer cells; format: cell-based; conditions: Homo sapiens, 72 h exposure, Cell-Titre luminescent reagent
Protocol: (§1) The ability of compounds of the invention to inhibit the proliferation of cancer cells representative of non-small cell lung cancer and ovarian cancer (Table 2), pancreatic cancer, colorectal cancer and prostate cancer (Table 3) was assessed. Briefly, a predetermined number of cells as calculated from cell growth assays for each of the cell lines employed were seeded into their respective culture medium (using ATCC culture parameters—http://www.atcc.org) and cultured for 24 h at 37° C. and 5% CO2 in 96-well culture plates. Once attached, each cell line was then exposed to various concentrations of each respective analogue (30, 10, 3, 1, 0.3 and 0.1 μM), cultured for a further 72 h and exposed to Cell-Titre luminescent reagent (100 μL/well) for a further 30 min. Luminescence was captured using an EnVision multilabel reader and the data for each analogue concentration compared against no treatment control. Cell viability was normalised to control (vehicle alone) and dose response curves, and half maximal effective concentration (EC50) values were determined using Graph Pad Prism 6 (nonlinear regression sigmoidal dose-response variable slope).

[2] = tested on: A2780 (ovarian); assay: Anti-proliferative activity (Cell-Titre luminescence) against A2780 ovarian cancer cells; format: cell-based; conditions: Homo sapiens, 72 h exposure, Cell-Titre luminescent reagent
Protocol: as §1

Row | IC50 ([1]; A549, 72 h) [µM] | IC50 ([2]; A2780, 72 h) [µM] | SMILES | IC50 ([1]; A549) [µM] | IC50 ([2]; A2780) [µM]
1 |  |  | OCCNc1nc(NCc2cccc(C(F)(F)F)c2)nc2ccccc12 [Compound 2, 2-((2-((3-(trifluoromethyl)benzyl)amino)quinazolin-4-yl)amino)ethan-1-ol] | 11.1 | 10.7
2 | 15.6 | 8.43 | c1c[nH]c(-c2nc(NCCc3c[nH]cn3)c3ccccc3n2)c1 [Compound 106, N-(2-(1H-imidazol-4-yl)ethyl)-2-(1H-pyrrol-2-yl)quinazolin-4-amine] |  | 
3 | 2.36 | 0.937 | FC(F)(F)c1cccc(CCNc2nc(NCCN3CCCCC3)c3ccccc3n2)c1 [Compound 114, N^4-(2-(piperidin-1-yl)ethyl)-N^2-(3-(trifluoromethyl)phenethyl)quinazoline-2,4-diamine] |  | 
4 | 11.6 | 12.5 | CN(C)CCCNc1nc(-c2ccc[nH]2)nc2ccccc12 [Compound 101, N^1-(2-(1H-pyrrol-2-yl)quinazolin-4-yl)-N^3,N^3-dimethylpropane-1,3-diamine] |  | 
5 | 7.5 | 13.1 | CCc1ccc(Nc2nc(NCCN(C)C)c3ccccc3n2)cc1 [Compound 62, N^4-(2-(dimethylamino)ethyl)-N^2-(4-ethylphenyl)quinazoline-2,4-diamine] |  | 
6 | 8.86 | 2.68 | CN1CCN(CCNc2nc(NCCc3ccc(N(C)C)cc3)nc3ccccc23)CC1 [Compound 134, N^2-(4-(dimethylamino)phenethyl)-N^4-(2-(4-methylpiperazin-1-yl)ethyl)quinazoline-2,4-diamine] |  | 
7 | 11.7 | 2.13 | CN(C)CCCNc1nc(Nc2ccc(F)cc2)nc2ccccc12 [Compound 73, N^4-(3-(dimethylamino)propyl)-N^2-(4-fluorophenyl)quinazoline-2,4-diamine] |  | 
8 | 3.05 | 1.62 | COCCCNc1nc(NCCc2cccc(C(F)(F)F)c2)nc2ccccc12 [Compound 117, N^4-(3-methoxypropyl)-N^2-(3-(trifluoromethyl)phenethyl)quinazoline-2,4-diamine] |  | 
9 | 9.4 | 1.95 | c1ccc2c(NCCc3c[nH]cn3)nc(-c3cc[nH]c3)nc2c1 [Compound 107, N-(2-(1H-imidazol-4-yl)ethyl)-2-(1H-pyrrol-3-yl)quinazolin-4-amine] |  | 
10 | 14.3 | 7.17 | CN1CCN(CCNc2nc(NCCc3ccc(N)cc3)nc3ccccc23)CC1 [Compound 133, N^2-(4-aminophenethyl)-N^4-(2-(4-methylpiperazin-1-yl)ethyl)quinazoline-2,4-diamine] |  | 
11 | > 30 | > 30 | OCCCNc1nc(-n2cccc2)nc2ccccc12 [Compound 111, 3-((2-(1H-pyrrol-1-yl)quinazolin-4-yl)amino)propan-1-ol] |  | 
12 | 27.8 | 9.37 | CN1CCN(CCNc2nc(NCCc3ccccn3)nc3ccccc23)CC1 [Compound 144, N^4-(2-(4-methylpiperazin-1-yl)ethyl)-N^2-(2-(pyridin-2-yl)ethyl)quinazoline-2,4-diamine] |  | 
13 | > 30 | 7.47 | OCCNc1nc(NCCc2ccccc2)nc2ccccc12 [Compound 35, 2-((2-(phenethylamino)quinazolin-4-yl)amino)ethan-1-ol] |  | 
14 | 3.17 | 2.68 | Cc1ccccc1CCNc1nc(NCCN2CCN(C)CC2)c2ccccc2n1 [Compound 122, N^2-(2-methylphenethyl)-N^4-(2-(4-methylpiperazin-1-yl)ethyl)quinazoline-2,4-diamine] |  | 
15 | > 30 | > 30 | OCCNc1nc(-c2ccc[nH]2)nc2ccccc12 [Compound 20, 2-((2-(1H-pyrrol-2-yl)quinazolin-4-yl)amino)ethan-1-ol] |  | 
16 | 11.2 | 3.43 | CN(C)CCCNc1nc(Nc2cccc(F)c2)nc2ccccc12 [Compound 72, N^4-(3-(dimethylamino)propyl)-N^2-(3-fluorophenyl)quinazoline-2,4-diamine] |  | 
17 | 9.21 | 6.91 | COc1cccc(Nc2nc(NCCO)c3ccccc3n2)c1 [Compound 29, 2-((2-((3-methoxyphenyl)amino)quinazolin-4-yl)amino)ethan-1-ol] |  | 
18 | > 30 | 18.9 | FC(F)(F)c1cccc(Nc2nc(NCCc3c[nH]cn3)c3ccccc3n2)c1 [Compound 79, N^4-(2-(1H-imidazol-4-yl)ethyl)-N^2-(3-(trifluoromethyl)phenyl)quinazoline-2,4-diamine] |  | 
19 | 6.65 | 3.91 | CN(C)CCNc1nc(NCCc2ccc(F)cc2)nc2ccccc12 [Compound 68, N^4-(2-(dimethylamino)ethyl)-N^2-(4-fluorophenethyl)quinazoline-2,4-diamine] |  | 

Row | IC50 ([1]; A549, 72 h) [µM] | IC50 ([2]; A2780, 72 h) [µM] | SMILES | IC50 ([1]; A549) [µM] | IC50 ([2]; A2780) [µM]
20 | 13.4 | 8.71 | COc1ccc(CCNc2nc(NCCN3CCN(C)CC3)c3ccccc3n2)cc1OC [Compound 137, N^2-(3,4-dimethoxyphenethyl)-N^4-(2-(4-methylpiperazin-1-yl)ethyl)quinazoline-2,4-diamine] |  | 
21 | 19.4 | 6.17 | COc1ccc(CCNc2nc(NCCN(C)C)c3ccccc3n2)cc1 [Compound 65, N^4-(2-(dimethylamino)ethyl)-N^2-(4-methoxyphenethyl)quinazoline-2,4-diamine] |  | 
22 | 5.28 | 1.4 | CN1CCN(CCNc2nc(NCCc3ccccc3C(F)(F)F)nc3ccccc23)CC1 [Compound 120, N^4-(2-(4-methylpiperazin-1-yl)ethyl)-N^2-(2-(trifluoromethyl)phenethyl)quinazoline-2,4-diamine] |  | 
23 | 26.8 | 18.8 | COc1cccc(CCNc2nc(NCCO)c3ccccc3n2)c1 [Compound 38, 2-((2-((3-methoxyphenethyl)amino)quinazolin-4-yl)amino)ethan-1-ol] |  | 
24 | 22 | 16.9 | OCCNc1nc(Nc2ccccc2)nc2ccccc12 [Compound 26, 2-((2-(phenylamino)quinazolin-4-yl)amino)ethan-1-ol] |  | 
25 | 11.7 | 8.33 | COc1ccc(Nc2nc(NCCCN(C)C)c3ccccc3n2)cc1 [Compound 70, N^4-(3-(dimethylamino)propyl)-N^2-(4-methoxyphenyl)quinazoline-2,4-diamine] |  | 
26 | 5.8 | 2.49 | COc1ccc(Nc2nc(NCCN3CCN(C)CC3)c3ccccc3n2)cc1 [Compound 44, N^2-(4-methoxyphenyl)-N^4-(2-(4-methylpiperazin-1-yl)ethyl)quinazoline-2,4-diamine] |  | 
27 | 3.44 | 1.1 | CN1CCN(CCNc2nc(NCCc3cc(Cl)cc(Cl)c3)nc3ccccc23)CC1 [Compound 139, N^2-(3,5-dichlorophenethyl)-N^4-(2-(4-methylpiperazin-1-yl)ethyl)quinazoline-2,4-diamine] |  | 
28 | > 30 | > 30 | OCCNc1nc(Nc2ccc(C(F)(F)F)cc2)nc2ccccc12 [Compound 28, 2-((2-((4-(trifluoromethyl)phenyl)amino)quinazolin-4-yl)amino)ethan-1-ol] |  | 
29 | 4 | 2.38 | CN1CCN(CCNc2nc(NCCc3ccccc3F)nc3ccccc23)CC1 [Compound 121, N^2-(2-fluorophenethyl)-N^4-(2-(4-methylpiperazin-1-yl)ethyl)quinazoline-2,4-diamine] |  | 
30 | > 30 | > 30 | COc1ccc(Nc2nc(NCCO)c3ccccc3n2)cc1 [Compound 30, 2-((2-((4-methoxyphenyl)amino)quinazolin-4-yl)amino)ethan-1-ol] |  | 
31 | 3.82 | 3.82 | OCCNc1nc(NCCc2ccc(C(F)(F)F)cc2)nc2ccccc12 [Compound 37, 2-((2-((4-(trifluoromethyl)phenethyl)amino)quinazolin-4-yl)amino)ethan-1-ol] |  | 
32 | 8.06 | 8.59 | CC(C)C(CNc1nc(-c2ccsc2)nc2ccccc12)N1CCN(C)CC1 (stereo not shown) [Compound 1, N-(3-methyl-2-(4-methylpiperazin-1-yl)butyl)-2-(thiophen-3-yl)quinazolin-4-amine] |  | 
33 | 8.88 | 7.11 | CCc1ccc(CCNc2nc(NCCCN(C)C)c3ccccc3n2)cc1 [Compound 76, N^4-(3-(dimethylamino)propyl)-N^2-(4-ethylphenethyl)quinazoline-2,4-diamine] |  | 
34 | 5.3 | 7.68 | CN1CCN(CCNc2nc(NCCc3ccccc3)nc3ccccc23)CC1 [Compound 50, N^4-(2-(4-methylpiperazin-1-yl)ethyl)-N^2-phenethylquinazoline-2,4-diamine] |  | 
35 | 11.9 | 7.09 | COc1ccc(Nc2nc(NCCN(C)C)c3ccccc3n2)cc1 [Compound 61, N^4-(2-(dimethylamino)ethyl)-N^2-(4-methoxyphenyl)quinazoline-2,4-diamine] |  | 
36 | 19.4 | 11.8 | CN(C)CCCNc1nc(-c2ccsc2)nc2ccccc12 [Compound 100, N^1,N^1-dimethyl-N^3-(2-(thiophen-3-yl)quinazolin-4-yl)propane-1,3-diamine] |  | 
37 | 19.8 | 5.67 | CN(C)CCNc1nc(Nc2cccc(F)c2)nc2ccccc12 [Compound 63, N^4-(2-(dimethylamino)ethyl)-N^2-(3-fluorophenyl)quinazoline-2,4-diamine] |  | 
38 | 3.28 | 6.13 | CN1CCN(CCNc2nc(NCc3ccc(C(F)(F)F)cc3)nc3ccccc23)CC1 [Compound 47, N^4-(2-(4-methylpiperazin-1-yl)ethyl)-N^2-(4-(trifluoromethyl)benzyl)quinazoline-2,4-diamine] |  | 
